Reference: patent US20230322797A1, “SOLID FORMS, PHARMACEUTICAL COMPOSITIONS AND PREPARATION OF HETEROAROMATIC MACROCYCLIC ETHER COMPOUNDS” (Nuvalent, Inc., priority 2022, published 2023)
Counter-ions that a name gives are not always drawn.

Experiments:
[1] = Salt screen of Compound 2: XRPD after drying and humidification; details: vacuum 50° C. at least 3 h, >95% RH overnight
[2] = Solubility of salts of Compound 2 and free base in distilled water (gravimetric); assay type: physicochemical; details: for Solubility (mg solid/mL water): distilled water, RT, stirred 3 days, gravimetric; for XRPD Pattern Recovered: solid recovered after slurry in water at RT
Experimental: Solubility of the scaled-up salts of Compound 2 and free base Compound 2 was assessed in distilled water at RT. Approximately 30 mg of solid was weighed directly into 2 mL vials, and a 6 mm stir bar was added to each vial. Water was then incrementally added to the vials (starting with 1 vol.) and the resulting slurries were left to stir for 10-15 min prior to the next addition. As all solids remained in slurries upon the addition of 1 mL of water, the gravimetric method was adopted, and the vials were stirred at RT for 3 days before centrifuging. Supernatant solutions were recovered and evaporated to dryness at 50° C. in atmosphere on a hot plate, then placed at 50° C. under vacuum (˜−29 inHg) for 3 h before final weighing.

[3] = Solid-form stability study of salts of Compound 2 (75% RH, 40° C., 7 days); assay type: physicochemical; details: for Purity (%) After / Purity (%) Before: HPLC; for Purity (%) After / XRPD Pattern After: after 7 days at 75% RH and 40° C.; for Purity (%) Before: before stress test
Experimental: Solid-form stability studies were completed by weighing approximately 30 mg each of Form A of the camsylate, esylate, mesylate, and sulfate salts of Compound 2 into 4 mL vials and covering with a Kimwipe. The vials were placed inside a humidity chamber set to 75% RH at 40° C. for 7 days. The HPLC and XRPD data was collected to confirm the purity and identity of the solid forms. The four salts were physically and chemically stable. No decrease in purity (i.e. less than 0.1%) or form change was observed after a seven-day stress test at 75% relative humidity (RH) and 40° C. (Table 5).

[4] = Solvent solubility screen; assay type: physicochemical; details: organic solvent or mixture, thermodynamic from solid; majority of the solvents investigated
Text: Solids were recovered from these solutions by the addition of anti-solvent to give an indication of solid form, with Form 2 predominantly observed.

[5] = Stability study of Compound 1 drug substance; assay type: physicochemical
Experimental: A stability study is conducted for Compound 1. Samples were stored at: 30° C.±2° C./65%±5% Relative Humidity (RH), or 40° C.±2° C./75%±5% RH. At regular intervals (e.g., initial, 1, 3, 6, 9, 12, 18, 24, and 36 months), tests are performed for description, assay, related substances, water content, polymorphic form, and chiral purity.
A stability study was conducted for Compound 1 crystalline free base Form 2. Samples were stored at: (1) 30° C.±2° C./65%±5% Relative Humidity (RH), with data collected at 0, 1, 3, 6, 9, and 12 months; and (2) 40° C.±2° C./75%±5% RH, with data collected at 0, 1, 3, and 6 months. At the indicated time points, tests were performed for description, assay, related substances, water content, polymorphic form, and chiral purity.

[6] = Dynamic vapour sorption (DVS); assay type: physicochemical; details: relative humidity from about 0 to about 90%, about 25° C.
Experimental: In one embodiment, the solid form is characterized by a DVS isotherm that matches the DVS isotherm depicted in FIG. 6. In one embodiment, the DVS isotherm is as measured at about 25° C.
Approximately, 10-20 mg of sample was placed into a mesh vapour sorption balance pan and loaded into a DVS Advantage dynamic vapour sorption balance by Surface Measurement Systems. The sample was subjected to a ramping profile from 40-90% relative humidity (RH) at 10% increments, maintaining the sample at each step until a stable weight had been achieved (dm/dt 0.004%, minimum step length 30 minutes, maximum step length 500 minutes) at 25° C. After completion of the sorption cycle, the sample was dried using the same procedure to 0% RH and then a second sorption cycle back to 40% RH. Two cycles were performed. The weight change during the sorption/desorption cycles were plotted, allowing for the hygroscopic nature of the sample to be determined. XRPD analysis was then carried out on any solid retained.

[7] = tested on: ROS1-positive NSCLC; details: ROS1-positive NSCLC patients; cited from earlier work

CCn1cc(Cc2cn(C)nc2-c2ccc(F)cc2[C@@H](C)Oc2cc(Br)cnc2N)c(Cl)n1 [Sulfate Salt]
Stability of crystalline salt pattern to drying and humidification [1]: stable to drying and humidification
Solubility (mg solid/mL water) [2]: <3 mg solid/mL water
XRPD Pattern Recovered [2]: Form A
Purity (%) After [3]: 99.97%
Purity (%) Before [3]: 99.97%
XRPD Pattern After [3]: Form A

CCn1cc(Cc2cn(C)nc2-c2ccc(F)cc2[C@@H](C)Oc2cc(Br)cnc2N)c(Cl)n1 [Mesylate Salt]
Stability of crystalline salt pattern to drying and humidification [1]: stable to drying and humidification
Solubility (mg solid/mL water) [2]: 8 mg solid/mL water
XRPD Pattern Recovered [2]: Form A
Purity (%) After [3]: 99.94%
Purity (%) Before [3]: 99.92%
XRPD Pattern After [3]: Form A

CCn1nc(Cl)c2c1-c1cnc(N)c(c1)O[C@H](C)c1cc(F)ccc1-c1nn(C)cc1C2 [lyophilized material]
solubility [4]: > 150 mg/mL

CCn1nc(Cl)c2c1-c1cnc(N)c(c1)O[C@H](C)c1cc(F)ccc1-c1nn(C)cc1C2 [Form 2]
Chemical and physical stability (description, assay, related substances, polymorphic form, chiral purity) ([5]; 30° C.±2° C./65%±5% RH, 12 months (Example 21)): no meaningful change
Chemical and physical stability (description, assay, related substances, polymorphic form, chiral purity) ([5]; 40° C.±2° C./75%±5% RH, 6 months (Example 21)): no meaningful change
DVS weight increase [6]: about 0.3%

CCn1cc(Cc2cn(C)nc2-c2ccc(F)cc2[C@@H](C)Oc2cc(Br)cnc2N)c(Cl)n1 [Esylate Salt]
Stability of crystalline salt pattern to drying and humidification [1]: stable to drying and humidification
Solubility (mg solid/mL water) [2]: 5 mg solid/mL water
XRPD Pattern Recovered [2]: Form A
Purity (%) After [3]: 99.75%
Purity (%) Before [3]: 99.75%
XRPD Pattern After [3]: Form A

CCn1cc(Cc2cn(C)nc2-c2ccc(F)cc2[C@@H](C)Oc2cc(Br)cnc2N)c(Cl)n1 [Camsylate Salt]
Stability of crystalline salt pattern to drying and humidification [1]: stable to drying and humidification
Solubility (mg solid/mL water) [2]: <3 mg solid/mL water
XRPD Pattern Recovered [2]: Form A
Purity (%) After [3]: 99.65%
Purity (%) Before [3]: 99.59%
XRPD Pattern After [3]: Form A

C[C@@H](Oc1cc(-c2cnn(C3CCNCC3)c2)cnc1N)c1c(Cl)ccc(F)c1Cl [Crizotinib]
Median progression-free survival [7]: 9-19 months
